Consider 4 compounds from patent publication US12390469B2, “SHP2 inhibitor monotherapy and uses thereof” (HUYABIO International, LLC, priority 2021, dated 2025).

“Also recorded” adds a separate entry of the source.

For one experiment, the system named is NCI-H358. Put plainly: Cell viability assay (CellTiter-Glo), NCI-H358. The note with it: Day 5, CellTiter-Glo. The experiment is classed as cell-based, human. The protocol:
(§1) Cell lines and maintenance: All cell lines used for in vitro and in vivo studies were supplied as part of Crown Biosciences cell bank except KYSE520, which was provided by HUYABIO. All cell lines were maintained according to source at 37° C. and 5% CO2 unless otherwise noted. Human Lung cancer cell lines NCI-H358, HCC827, Esophageal cancer cell line KYSE520, Stomach cancer cell line NCI-N87 and Mouse Colon cancer cell line MC38 were cultured in RPMI1640+10% FBS. Pancreatic cell line MiaPaca-2 was cultured in MDME+10% FBS+2.5% HS. Pancreatic cancer cell line CAPAN-1 was cultured in IMDM+20% FBS. Brain cancer cell line U87MG was cultured in MEM+0.01 mM NEAA+10% FBS. Lung cancer cell line HCC827-ER1 (Derived from HCC827 at Crown Biosciences) was cultured in RPMI1640+10% FBS+42 μM erlotinib. Lung cancer cell line NCI-H1975 (developed at Synthego Corporation) was cultured in RPMI1640+10% FBS+100 μg/ml Hygromycin (Sun, 2020).
(§2) Cell Viability Assay: For cell cytotoxicity assays, cells were plated in 96-well plates and plating densities were determined on the basis of Crown Biosciences Cell line Database. Cells were plated at 2000 cells/well. Twenty four hours after plating, cells were treated with inhibitors at the indicated compound concentrations. On Day 5, cells were lysed with CellTiter-Glo® Luminescent Cell Viability Assay reagent (Promega) and luminescence was read using the EnVision Multi-plate reader. To calculate IC50 values, a dose-response curve is generated using a nonlinear regression model with a sigmoidal dose response. The formula of surviving rate is shown below. IC50 values were automatically generated by GraphPad Prism 8.0. The results of these assays are depicted in FIG. 1 and Table 1, and further in FIG. 9A (HCC827-ER1) and 9B (NCI-H1975 (L858R/T790M/C797S)).

For the next experiment, the system named is U87MG. Put plainly: Cell viability assay (CellTiter-Glo), U87MG. The note with it: Day 5, CellTiter-Glo. The experiment is classed as cell-based. How it is done:
as §1, §2

The next experiment concerns Capan-1. Put plainly: Cell viability assay (CellTiter-Glo), Capan-1. In kind it is cell-based. The conditions noted are these: Day 5, CellTiter-Glo. The protocol:
as §1
(§3) Cell Viability Assay: For cell cytotoxicity assays, cells were plated in 96-well plates and plating densities were determined on the basis of Crown Biosciences Cell line Database. Cells were plated at 2000 cells/well. […] On Day 5, cells were lysed with CellTiter-Glo® Luminescent Cell Viability Assay reagent (Promega) and luminescence was read using the EnVision Multi-plate reader. […]

For the next experiment, the system named is KYSE 520. The experiment in a line: Cell viability assay (CellTiter-Glo), KYSE 520. The conditions noted are these: Day 5, CellTiter-Glo. In kind it is cell-based, human. The protocol:
as §1, §2

Another experiment relates to NCI-N87. Put plainly: Cell viability assay (CellTiter-Glo), NCI-N87. In kind it is cell-based, human. The conditions noted are these: Day 5, CellTiter-Glo. How it is done: as §1, §2
A further experiment concerns HCC827. Put plainly: Cell viability assay (CellTiter-Glo), HCC827. The conditions noted are these: Day 5, CellTiter-Glo. The experiment is classed as cell-based, human. The protocol:
as §1, §2

The next experiment relates to NCI-H1975. The experiment in a line: Cell viability assay (CellTiter-Glo), NCI-H1975. The experiment is classed as cell-based. The conditions noted are these: Day 5, CellTiter-Glo. The protocol:
as §1, §2

In experiment [1] the test system is lung cancer cell line HCC827-ER1. Put plainly: Cell viability assay, HCC827-ER1 (FIG. 9A). In kind it is cell-based, human. How it is done: as §1, §3
Experiment [2] has as its system NCI-H1975 (L858R/T790M/C797S). Put plainly: Cell viability assay, Osimertinib resistant NCI-H1975 (FIG. 9B). In kind it is cell-based. How it is done: as §1, §3
In a further experiment the test system is cancer cell lines. The experiment in a line: Cell proliferation assays, cell line panel (FIG. 1). The experiment is classed as cell-based. The note with it: compared with GH21001 (TNO-155), RMC-4550, Cisplatin. The protocol: as §1, §3
The next experiment has as its system MC38 tumors. Put plainly: Tumor and blood immunotyping (FACS) in MC38 model. In kind it is in vivo, mouse. How it is done:
All cell lines were maintained in culture and cells in exponential growth phase were harvested and quantitated by cell counter before tumor inoculation. MC38 tumor cells (1×10^6) in 0.1 ml of PBS were inoculated into the right front flank of female C57/Bl animals, mean tumor size approximately 112 mm^3 at the start of treatment. NCI-H1975 (EGFR L858R/[…]/C797S) tumor cells (1×10^7) in 0.1 ml of PBS mixed with Matrigel (1:1) inoculated into female NOD/SCID animals, mean tumor approximately 200 mm^3 at the start of treatment. HCC827-ER1 tumor cells (5×10^7) in 0.1 ml of PBS mixed with Matrigel (1:1) inoculated into female Balb/C Nude animals, mean tumor approximately 325 mm^3 at the start of treatment.
The date of randomization and treatment initiation was denoted as day 0. Tumor volumes were measured twice per week in two dimensions using a caliper, and the volume will be expressed in mm^3 using the formula: V=(L×W×W)/2, where V is tumor volume, L is tumor length (the longest tumor dimension) and W is tumor width (the longest tumor dimension perpendicular to L). Dosing volume was 10 mL/kg/day. GH21001 and GH21005 were dissolved in HP-β-CD with 200 ml of 50 mM sodium citrate (pH=4.2). Anti-PD-1 and Rat IgG2a were diluted in PBS. RMC-4550 was diluted in 1% Capitsol in 50 mM sodium citrate (pH=5.0) 0.5% dosing solution of osimertinib was diluted in 2% DMSO/30% PEG300. The results of these experiments are depicted in FIG. 2A-B (MC38 tumors) and FIG. 10A-10B (NCI-H1975 (L858R/T790M/C797S) tumors). The results for HCC827 CDX model are depicted in FIG. 12A-B. Upon termination, tumors were collected. A portion of the tumor was minced and snap frozen immediately for protein isolation or tumor tissue was dissociated for FACs analysis. Another portion of the tumor was fixed in 10% neutral buffered formalin prior to processing into paraffin blocks.
Tumor dissociation: Upon termination animals bearing MC38 tumors, tumors and blood was harvested 12 hours post last dose. Tumors were enzymatically and mechanically dissociated using The Tumor Dissociation Kit (130-096-730) Miltenyi Biotec MACS Technology. Mononuclear blood cells (PBMCs) were isolated from whole blood using Histopaque-1077 (Sigma).
Tumor cell suspension, whole lysed blood or isolated PBMCs were resuspended and blocked in staining buffer with 1 μg/ml Fc-Block (Mouse BD Fc Block™ CAT #553141). All antibodies were diluted in Fc Blocking buffer except FoxP3 which was diluted in Permeabilization Buffer. Antibodies were diluted according to Crown Biosciences optimization. Cell surface markers CD45, CD4, CD335, CD11b, Gr-1 were purchased from Biolegend. CD3 was purchased from BD Biosciences. CD8, FoxP3 and LD BD were purchased from eBiosciences. Data was collected on a cytometer and data was analyzed using Kaluza Analysis Software. The results of these experiments are depicted in FIG. 3 (macrophages), FIG. 4 (monocytes), FIG. 5 (granulocytes), FIG. 6 (CD3+ cells), FIG. 7 (CD4+ cells), and FIG. 8 (CD8+ cells).

The subject of a further experiment is KC/GRO. The experiment in a line: Cytokine detection assay (V-Plex Proinflammatory Panel 1 Mouse Kit) in plasma. In kind it is in vivo. The note with it: FIG. 11; tumor bearing animals, 2 hours post last dose; versus GH21001 (TNO-155) and RMC-4550; listed as Formula (Ia). The protocol: Cytokine detection assay: V-Plex Proinflammatory Panel 1 Mouse Kit (Mesoscale Discovery) was used to determine cytokine levels in plasma isolated from tumor bearing animals 2 hours post last dose. Plasma from tumor bearing animals was analyzed as described by the manufacture's guidelines. Briefly, diluted plasma is introduced to the MSD plate pre-coated with capture antibodies to KC/GRO. After incubation, samples are washed and incubated with secondary detection antibody, (MSD SULFO-TAG™). Electrochemiluminescence detection from the assay is analyzed on the Meso Scale Discovery platform and cytokine levels calculated according to manufacturer's control samples.

The subject of another experiment is MIAPaCa-2. The experiment in a line: Cell viability assay (CellTiter-Glo), MIAPaCa-2. The experiment is classed as cell-based. The conditions noted are these: Day 5, CellTiter-Glo. How it is done: as §1, §3

In the case of `C[C@@H]1OCC2(CCN(c3cnc(Sc4ccnc(N)c4Cl)c(N)n3)CC2)[C@@H]1N` [GH21001], the IC50 is 460 nM in the experiment with NCI-H358 (Homo sapiens, 120 h); 1530 nM in the experiment with U87MG (Homo sapiens, U-87 MG, 120 h); 6060 nM in the experiment with Capan-1 (Homo sapiens, 120 h); 450 nM in the experiment with KYSE 520 (Homo sapiens, 120 h); 230 nM with NCI-N87 (Homo sapiens, 120 h); 410 nM with HCC827 (Homo sapiens, 120 h).
Turning to `C[C@@H]1OCC2(CCN(c3cnc(Sc4cccc(NC(=O)c5c(O)nc6n(c5=O)CCCC6)c4Cl)cn3)CC2)[C@@H]1N` [GH21005, N-(3-((5-((3S,4S)-4-amino-3-methyl-2-oxa-8-azaspiro[4.5]decan-8-yl)pyrazin-2-yl)thio)-2-chlorophenyl)-2-hydroxy-4-oxo-6,7,8,9-tetrahydro-4H-pyrido[1,2-a]pyrimidine-3-carboxamide], the IC50 in the experiment with NCI-H358 (Homo sapiens, 120 h) was found to be 30 nM; in the experiment with NCI-H1975 (Homo sapiens, 120 h), 210 nM; with U87MG (Homo sapiens, U-87 MG, 120 h), 230 nM; with KYSE 520 (Homo sapiens, 120 h) it was 60 nM; in the experiment with NCI-N87 (Homo sapiens, 120 h), 10 nM; in the experiment with HCC827 (Homo sapiens, 120 h), 20 nM. Also, in [1], the “viability of lung cancer cell line HCC827-ER1” value is given as “reduces viability”. Besides, the “viability of Osimertinib resistant cancer cell line NCI-H1975 (L858R/T790M/C797S)” value in experiment [2] is “reduces viability”. In addition, the “potency in cell proliferation assays versus other agents” value in the experiment on cancer cell lines was “greater potency in cell proliferation assays than other agents”. In addition, the “macrophage populations in MC38 tumors” value with MC38 tumors (FIG. 3, harvested 12 hours post last dose) is listed as “reduces macrophage populations”. Besides, in the experiment with MC38 tumors (FIG. 4, harvested 12 hours post last dose), the “monocyte populations in MC38 tumors” value was “increases monocyte populations”. The “granulocyte populations in MC38 tumors” value in the experiment on MC38 tumors (FIG. 5, harvested 12 hours post last dose) is on record as “increases granulocyte populations”. The “circulating CD3+ cell populations” value in the experiment with MC38 tumors (FIG. 6, MC38 model, blood 12 hours post last dose) is listed as “increases circulating CD3+ cell populations”. For the same compound, the “circulating CD4+ cell populations” value in the experiment on MC38 tumors (FIG. 7, MC38 model, blood 12 hours post last dose) is reported as “increases circulating CD4+ cell populations”. Moreover, in the experiment with MC38 tumors (FIG. 8, MC38 model, blood 12 hours post last dose), the “circulating CD8+ cell populations” value was “increases circulating CD8+ cell populations”. In addition, in the experiment with KC/GRO, the “KC/GRO level in plasma” value was “significantly reduced KC/GRO as compared to GH21001 (TNO-155) and RMC-4550; also recorded: reduces KC/GRO significantly more than GH21001 (TNO-155) and RMC-4550”.
Regarding `Cc1nc(N2CCC3(CC2)CO[C@@H](C)[C@H]3N)c(CO)nc1-c1cccc(Cl)c1Cl` [RMC-4550], the IC50 amounted to 440 nM in the experiment with NCI-H358; 1440 nM in the experiment with NCI-H1975; 3900 nM in the experiment with U87MG; 490 nM with KYSE 520; 260 nM in the experiment with NCI-N87; 690 nM in the experiment on HCC827.
Turning to `N.N.[Cl][Pt][Cl]` [Cisplatin], the IC50 stood at 4850 nM in the experiment on NCI-H358; 3990 nM in the experiment on NCI-H1975; 7150 nM in the experiment with MIAPaCa-2; 1580 nM in the experiment on U87MG; 270 nM in the experiment on Capan-1; 6800 nM in the experiment with KYSE 520. In addition, the figures for the IC50 in the experiment on NCI-N87 and with HCC827 were 2350 nM and 4790 nM, respectively.
